{
  "source": "paper PMC8138767",
  "about": "“Intrinsically disordered substrates dictate SPOP subnuclear localization and ubiquitination activity” (The Journal of Biological Chemistry, 2021)",
  "key": {"HeLa cells": {"tested_on": "HeLa cells", "test": "Immunofluorescence: subcellular localization / phase separation of the protein itself", "type": "cell-based", "settings": "confocal fluorescence microscopy", "experimental": "HeLa cells were cultured under sterile conditions with Dulbecco’s modified Eagle’s medium (DMEM) (Gibco) supplemented with 10% fetal bovine serum and antibiotics/antimycotics (Gibco) (see Table S5 for key reagents and resources). T-REx-293 cells (cat. no. R710-07) were obtained from Invitrogen. Cells were grown on DMEM supplemented with 10% fetal bovine serum (Gibco), GlutaMax (Gibco), and Penicillin-Streptomycin (Gibco) and kept under selection by 5 μg/ml blasticidin. All cells were grown at 37 °C under 5% CO2 and were mycoplasma free at the time the experiments were performed.\n(§1) A plasmid encoding full-length human Pdx1 (amino acids 1-283) in pcDNA3.1 with a C-terminal GFP tag was purchased from GenScript. Full-length mouse SPOP (identical to the human sequence) with a V5 epitope tag in pcDNA3 was generated previously ([21]). The coding sequence for full-length mouse SPOP was inserted into pcDNA4/TO/myc (Invitrogen) for the T-REx system. pcDNA3-myc-CUL3 (cat no. 19893) and pcDNA–HA2–ROC1 (Rbx1) (cat no. 19897) were obtained from Addgene. pcDNA3 containing His-ubiquitin was a gift from Wenyi Wei.\nFor immunofluorescence experiments, 0.5 × 10^6 cells were seeded on borosilicate glass coverslips in 6-well plates. After 24 h, cells were transfected with 400 ng of each plasmid using the Qiagen Effectene transfection reagent according to the manufacturer protocol. 24 h after transfection, the cells were treated with 4% paraformaldehyde in PBS for 30 min at RT. Cells were permeabilized with 0.1% Triton X-100 in PBS (PBST) for 5 min at 21 °C, followed by blocking in 0.5% BSA in PBST for 1 h at 21 °C. Signal from GFP-tagged proteins was observed directly. […] All images were analyzed and prepared in Fiji ([53]).\nAll immunofluorescence data were averaged over three biological replicates. […] Next, the raw GFP intensity data points (one data point per cell analyzed) were plotted to generate a violin plot distribution. […]"}, "[1]": {"tested_on": "SPOP-mediated ubiquitination in T-REx-293 cells", "test": "SPOP-mediated ubiquitination of Pdx1 variants (Ni-NTA pulldown, immunoblot)", "type": "cell-based", "settings": "SPOP–myc and GFP–Pdx1 coexpressed 24 h, then 20 μM MG132 or DMSO for 4 h, immunoblot (Fig. 6C)", "experimental": "We next sought to determine whether SPOP-driven ubiquitination of Pdx1 could occur outside of previously implicated droplets. Given the SPOP relocalization phenotype that we observe in cells that express SPOP and Pdx1, we hypothesized that the ubiquitination activity was occurring in the diffuse nucleoplasm and that optimal activity requires both SB sites. To test this hypothesis, we performed in cell ubiquitination assays with GFP–Pdx1 variants. SPOP–myc and GFP–Pdx1 were coexpressed for 24 h in T-REx-293 cells, followed by a 4-h treatment with 20 μM MG132 or dimethyl sulfoxide. Proteins modified with His-ubiquitin were enriched by pulldown on nickel-nitrilotriacetic acid (Ni-NTA) resin.\nas §1\nUbiquitination and Western blots\nT-REx-293 cells (Invitrogen) were seeded at a density of 0.8 × 10^6 per well in 6-well plates (tissue culture–treated plates (cat. no 3516, Corning)). After 24 h, cells were transfected with plasmids encoding Pdx1–GFP, SPOP–myc, His–ubiquitin, HA–Rbx1, and myc–CUL3 (as indicated) using the Qiagen Effectene transfection reagent. 24 h after transfection, the cells were treated with either dimethyl sulfoxide or 20 μM MG132 for 4 h before being harvested. Cells were lysed in buffer A (6 M guanidine HCl, 100 mM sodium phosphate, pH 8.0, and 10 mM imidazole). The lysates were sonicated, cleared, and incubated with Ni-NTA Agarose (Qiagen) for 3 h at RT, followed by 16 h at 4 °C. The beads were washed twice with buffer A and twice with a buffer composed of 1:3 buffer A:buffer T1 (buffer T1: 25 mM Tris HCl, pH 8.0, and 20 mM imidazole). The beads were finally transferred to buffer T1 and then boiled in the SDS-PAGE loading buffer containing 300 mM imidazole. Pdx1 stability assays were performed as described above, except that the cells were not treated with MG132. Cells expressing Pdx1–GFP or a variant were harvested 28 h after transfection, resuspended in 2x SDS-loading dye, and boiled for 5 min before SDS-PAGE analysis.\nAll proteins were resolved by SDS-PAGE. Separated proteins were analyzed by immunoblotting using either the ECL or the ECL Select Western blotting detection reagents (Amersham). The antibodies used were mouse anti-Pdx1 used at 1:500 for pulldown or 1:2000 for inputs (clone 26771, MAB2419, R&D Systems), mouse anti-myc (1:250, clone 9E10, Santa Cruz Biotechnology), and rabbit anti-GAPDH (1:8000, clone EPR1689, Abcam). horseradish peroxidase-conjugated secondary antibodies were sourced from Jackson ImmunoResearch Laboratories and used at 1:20,000 dilution (goat anti-rabbit IgG, 111-035-003 and goat anti-mouse, 115-035-003)."}, "[2]": {"test": "In vitro phase separation of Pdx1", "type": "physicochemical"}, "SPOP": {"tested_on": "SPOP", "settings": "previously described, no reference given; cited from earlier work", "from_the_text": "SPOP derives its name from the […]. Specifically, SPOP colocalizes with nuclear speckles but has also been reported in other subnuclear compartments ([24], [26]). The nuclear speckles that house SPOP in the absence of high concentrations of substrate are liquid-like in nature ([21]). The SPOP substrate DAXX typically localizes to promyelocytic leukemia bodies ([27])."}},
  "note": "Entries after “also recorded” stand apart in the source; their conditions may differ.",
  "data": [
    {"substance": "Pdx1: full-length human Pdx1 (amino acids 1-283) with a C-terminal GFP tag", "values": [
      {"measurement": "localization / phase separation in cells", "setting": "HeLa cells", "value": "did not undergo observable partitioning to any nuclear body; also recorded: do not form phase-separated compartments in cells"},
      {"measurement": "localization / phase separation in cells", "setting": "HeLa cells; listed as GFP–Pdx1", "value": "does not localize to punctate structures in cells; also recorded: localizes to the nucleus (marked by DAPI, blue) and does not perturb the formation of or partition to nuclear speckles"},
      {"measurement": "ubiquitination of Pdx1 variant", "setting": "[1]; listed as GFP–Pdx1–WT", "value": "is ubiquitinated in cells"},
      {"measurement": "ubiquitination of Pdx1 variant", "setting": "[1]; listed as Pdx1–WT", "value": "robust polyubiquitination"},
      {"measurement": "in vitro phase separation", "setting": "[2]", "value": "do not observe in vitro phase separation"},
      {"measurement": "type of ubiquitination previously described", "setting": "SPOP", "value": "primarily monoubiquitination"}
    ]}
  ]
}
